Assay [1] relates to liposarcoma patient-derived xenograft (LP-19-0029 PDX). The assay can be described thus: Antitumor activity in subcutaneous liposarcoma patient-derived xenograft (LP-19-0029 PDX) model. Type of assay: in vivo, Balb/c nude mice. The conditions noted are these: for T/C (%) @D 21 / RTV @D 21: Embodiment 2, day 21, Compound C 80 mg/kg p.o. Q2D x 16D, Palbociclib 50 mg/kg p.o. QD x 3W; for RTV @D 21: mean ± SEM, n=5; for RTV @D 22 / T/C(%) @D 22: day 22, Compound C 40 mg/kg p.o. q.2d x 3w, Palbociclib 50 mg/kg p.o. q.d x 3w, Ribociclib 75 mg/kg p.o. q.d x 3w. The source says: Animals: Balb/c nude, female, 6-8 weeks, weighing approximately 18-22 g. A total of 40 (20 plus 100%) will be needed for the study, which will be purchased from Shanghai SLAC Laboratory Animal Co., LTD. Generation of the subcutaneous liposarcoma patient-derived xenograft (LP-19-0029 PDX) Model: The LP-19-0029 PDX model was originally established from a surgically resected clinical sample (cancer type: liposarcoma; pathology diagnosis: dedifferentiated liposarcoma), and implanted in nude mice defined as passage 0 (P0). The next passage implanted from P0 tumor was defined as passage 1 (P1), and so on during continual implantation in mice. The frozen tumor fragments will be revived in NOD SCID mice, when the tumors develop to suitable size, they will be passaged to Balb/c nude mice. The P4-P7 tumors will be used for the study. Each mouse was implanted subcutaneously at the right flank with the LP-19-0029 P4 tumor slices (about 30 mm^3) for tumor development. Treatments were started when the average tumor size reached approximately 150 mm^3. The animals were assigned into groups using an Excel-based randomization software performing stratified randomization based upon their tumor volumes. Each group consisted of 5 tumor-bearing mice. [table] Tumor volumes were measured twice weekly in two dimensions using a caliper, and the volume was expressed in mm^3 using the formula: Tumor Volume(mm^3)=0.5a×b^2 where a and b are the long and short diameters of the tumor, respectively. Relative tumor volume (RTV) was calculated using the following formula: RTV=Vt/Vl where Vl and Vt are the average tumor volumes on the first day of treatment (day 1) and the average tumor volumes on a certain time point (day t). Synergy score was calculated using the following formula described in Clarke R. Issues in experimental design and endpoint analysis in the study of experimental cytotoxic agents in vivo in breast cancer and other models[J]. Breast Cancer Research & Treatment, 1997, 46(2-3):255-278, which is incorporated by reference in its entirety: Synergy score=(([…]); where A is RTV value of drug A; B is RTV value of drug B; C is RTV value of vehicle control. AB is RTV value of combination treatment with A and B. Synergy scores: >1 represents synergistic, =1 represents additive, <1 represents antagonistic (referring to Gould S E et al. Translational value of mouse models in oncology drug development. Nature medicine. 2015 21, 431-439). Standard NCI procedures were used to calculate tumor parameters. Percent tumor growth inhibition (% T/C) was calculated as the mean RTV of treated tumors (T) divided by the mean RTV of control tumors (C)×100%. The percentage T/C value is an indication of antitumor effectiveness: a value of T/C<42% is considered significant antitumor activity by the NCI. A T/C value<10% is considered to indicate highly significant antitumor activity, and is the level used by the NCI to justify a clinical trial if toxicity and certain other requirements are met (termed DN-2 level activity). A body weight loss nadir (mean of group) of greater than 20%, or greater than 20% of drug deaths are considered to indicate an excessively toxic dosage. Summary statistics, including mean and the standard error of the mean (SEM), are provided for the tumor volume of each group at each time point. Statistical analysis of difference in the tumor volume among the groups were conducted on the data obtained at the best therapeutic time point after the final dose. A one-way ANOVA was performed to compare the tumor volume and the tumor weight among groups, and when a significant F-statistics (a ratio of treatment variance to the error variance) was obtained, comparisons between groups were carried out with Games-Howell test. All data were analyzed using SPSS 17.0. p<0.05 is considered to be statistically significant. […]

The test system of assay [2] is lung cancer patient-derived xenograft (LU-01-0448 PDX). The assay can be described thus: Antitumor activity in subcutaneous lung cancer patient-derived xenograft (LU-01-0448 PDX) model. It is filed as in vivo, mice. The conditions noted are these: Embodiment 4; for mRECIST / Response @ D 33: animals per category, PD progressive disease, SD stable disease, PR partial response; for T/C(%) @ D 33 / RTV @ D 33 / Response @ D 33: day 33; for T/C(%) @ D 33 / RTV @ D 33: Compound C 100 mg/kg p.o. QD x 5 D, Palbociclib 50 mg/kg p.o. QD x 21 D; for RTV @ D 33: n=2. The protocol:
Tumor volumes were measured twice weekly in two dimensions using a caliper, and the volume was expressed in mm^3 using the formula: Tumor Volume(mm^3)=0.5a×b^2 Relative tumor volume (RTV) was calculated using the following formula: RTV=Vt/Vl Synergy score=(([…]); where A is RTV value of drug A; B is RTV value of drug B; C is RTV value of vehicle control. AB is RTV value of combination treatment with A and B. Synergy scores: >1 represents synergistic, =1 represents additive, <1 represents antagonistic (referring to Gould S E et al. Translational value of mouse models in oncology drug development. Nature medicine. 2015 21, 431-439). Standard NCI procedures were used to calculate tumor parameters. Percent tumor growth inhibition (% T/C) was calculated as the mean RTV of treated tumors (T) divided by the mean RTV of control tumors (C)×100%. The percentage T/C value is an indication of antitumor effectiveness: a value of T/C<42% is considered significant antitumor activity by the NCI. A T/C value<10% is considered to indicate highly significant antitumor activity, and is the level used by the NCI to justify a clinical trial if toxicity and certain other requirements are met (termed DN-2 level activity). A body weight loss nadir (mean of group) of greater than 20%, or greater than 20% of drug deaths are considered to indicate an excessively toxic dosage. Compound C was further tested in combination with palbociclib in another patient-derived xenograft model (LU-01-0448 PDX model). LU-01-0448 PDX model was a subcutaneous lung cancer patient-derived xenograft model, which was established according to the procedures of LP-19-0029 PDX model in embodiment 2. This experiment was carried out according to Table 4 and the procedures described in embodiment 2. [table]

Where “and” joins values, the source holds several entries; their conditions need not be identical. Equal values may be shown once.

`CC(=O)c1c(C)c2cnc(Nc3ccc(N4CCNCC4)cn3)nc2n(C2CCCC2)c1=O` [Palbociclib, palbociclib]: in assay [1], the “T/C (%) @D 21” value was found to be 70% and the “RTV @D 21” value is 15.19 ± 1.31. Besides, in assay [1] (Embodiment 3), the “RTV @D 22” value is recorded as 11.36 ± 0.96 and the “T/C(%) @D 22” value was 83.50%. In addition, in assay [1] (Embodiment 3, listed as palbociclib), the “T/C(%) @D 22” value came out at 83.5%. Also, in assay [2], the mRECIST is recorded as 2/2 PD, the “T/C(%) @ D 33” value was determined as 35.71%, the “RTV @ D 33” value worked out at 4.18 ± 0.80 and the “Response @ D 33” value is recorded as 2/2 PD.

Regarding `CN(C)C(=O)c1cc2cnc(Nc3ccc(N4CCNCC4)cn3)nc2n1C1CCCC1` [Ribociclib, ribociclib], in assay [1] (Embodiment 3), the “RTV @D 22” value is 9.77 ± 1.22 and the “T/C(%) @D 22” value is given as 71.70%. Further, the “T/C(%) @D 22” value in assay [1] (Embodiment 3, listed as ribociclib) is recorded as 71.7%.

In the case of `CCN1[C@@H](C(=O)NC23CCC(C(=O)O)(CC2)CC3)[C@H](c2cccc(Cl)c2F)[C@]2(C(=O)Nc3cc(Cl)ccc32)C12CCCCC2` [Compound C, 4-((3′R,4′S,5′R)-6″-Chloro-4′-(3-chloro-2-fluorophenyl)-1′-ethyl-2″-oxodispiro[cyclohexane-1,2′-pyrrolidine-3′,3″-indoline]-5′-carboxamido)bicyclo[2.2.2]octane-1-carboxylic acid], in assay [1], the “T/C (%) @D 21” value was 22.28% and the “RTV @D 21” value worked out at 4.83 ± 1.56. Also, the “T/C (%) @D 21” value in assay [1] (listed as compound C) came to 22%. Further, the “RTV @35” value in assay [1] (Embodiment 3, @35, Compound C 40 mg/kg, Palbociclib 50 mg/kg, Ribociclib 75 mg/kg) amounted to 10.95 ± 1.66. In addition, in assay [1] (Embodiment 3), the “RTV @D 22” value is 5.24 ± 0.61; the “T/C(%) @D 22” value was 38.4% and 38.44%. In addition, in assay [2], the mRECIST is on record as 2/2 SD, the “T/C(%) @ D 33” value is reported as 41.43%, the “RTV @ D 33” value worked out at 4.85 ± 1.85 and the “Response @ D 33” value is reported as 2/2 PD.

Source of the values: patent publication US11452716B2, “Pharmaceutical composition and use thereof” (Ascentage Pharma (Suzhou) Co., Ltd., priority 2018, dated 2022).
